Results published in ChEMBL document CHEMBL1201862, “PubChem BioAssay data set” (2004).
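Dose response: 5 concentrations. Exposure: 48 h. Format: 96-well plates. Endpoint: linear interpolation; highest concentration if not reached. GI50 = concentration required for 50% inhibition of growth.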 The source made the active and inactive calls. No stated cut-off is given here; in the data, active = GI50 up to about 1.1 µM and inactive = higher.

Experiments:
Assay in all cases: NCI tumour cell line growth inhibition, 48 h
SF-268 = test system: SF-268
KM12 = test system: KM12
HT-29 = test system: HT-29
Hs-578T = test system: Hs-578T
M14 = test system: M14
NCI-H226 = test system: NCI-H226
UACC-62 = test system: UACC-62
MDA-N = test system: MDA-N
786-0 = test system: 786-0
T47D = test system: T47D
UO-31 = test system: UO-31
HCT-116 = test system: HCT-116
RXF 393 = test system: RXF 393
DU-145 = test system: DU-145
MCF7 = test system: MCF7
HOP-92 = test system: HOP-92
SK-MEL-5 = test system: SK-MEL-5
Malme-3M = test system: Malme-3M
NCI/ADR-RES = test system: NCI/ADR-RES
CAKI-1 = test system: CAKI-1

Measured: GI50

CCOC(=O)C(NCc1ccccc1)(NC(=O)c1ccccc1)C(F)(F)F (stereo not given)
inactive: SF-268 > 100 µM | KM12 81.5 µM | HT-29 > 100 µM | Hs-578T > 100 µM | M14 > 100 µM | NCI-H226 > 100 µM | UACC-62 > 100 µM | MDA-N > 100 µM | 786-0 > 100 µM | T47D 38.5 µM | UO-31 46.6 µM | HCT-116 > 100 µM | RXF 393 64.7 µM | DU-145 > 100 µM | MCF7 > 100 µM | HOP-92 42.3 µM | SK-MEL-5 84.9 µM | Malme-3M > 100 µM | NCI/ADR-RES 43.3 µM | CAKI-1 > 100 µM

Cc1cc2c(cc1Cl)Sc1nnc(C)n1S2(=O)=O
inactive: SF-268 14.9 µM | KM12 15.5 µM | HT-29 18.5 µM | Hs-578T 28.9 µM | M14 14 µM | NCI-H226 30.2 µM | UACC-62 15 µM | MDA-N 13.8 µM | 786-0 16.1 µM | T47D 8.18 µM | UO-31 10.6 µM | HCT-116 16.1 µM | RXF 393 17.6 µM | DU-145 22 µM | MCF7 4.44 µM | HOP-92 2.84 µM | SK-MEL-5 13.6 µM | Malme-3M 8.67 µM | NCI/ADR-RES 27 µM | CAKI-1 15.6 µM

O=Cc1ccc2c(c1)CC1(C2)Cc2ccc(C=O)cc2C1
inactive: SF-268 13.4 µM | KM12 28.1 µM | HT-29 24.5 µM | Hs-578T 3.26 µM | M14 6.14 µM | NCI-H226 22.8 µM | UACC-62 6.76 µM | MDA-N 2.45 µM | 786-0 7.45 µM | T47D 25.8 µM | UO-31 11.9 µM | HCT-116 7.52 µM | RXF 393 3.61 µM | DU-145 35.5 µM | MCF7 31.8 µM | HOP-92 20.6 µM | SK-MEL-5 5.28 µM | Malme-3M 20 µM | NCI/ADR-RES 4.88 µM | CAKI-1 44.9 µM

N=C(N)SC1c2ccccc2-c2cc([N+](=O)[O-])ccc21 (stereo not given)
inactive: SF-268 4.48 µM | KM12 3.23 µM | HT-29 3.66 µM | Hs-578T 3.1 µM | M14 5.15 µM | NCI-H226 7.53 µM | UACC-62 2.86 µM | MDA-N 3 µM | 786-0 4.67 µM | T47D 2.95 µM | UO-31 8.13 µM | HCT-116 4.76 µM | RXF 393 3.5 µM | DU-145 3.88 µM | MCF7 3.24 µM | HOP-92 13.7 µM | SK-MEL-5 3.08 µM | Malme-3M 5.19 µM | NCI/ADR-RES 3.01 µM | CAKI-1 6.1 µM

O=[N+]([O-])c1ccc2c(Nc3ccccc3-c3ccccc3Nc3c4ccccc4nc4cc([N+](=O)[O-])ccc34)c3ccccc3nc2c1
inactive: SF-268 6.55 µM | KM12 2.86 µM | HT-29 4.14 µM | Hs-578T 2.47 µM | M14 2.92 µM | NCI-H226 4.11 µM | UACC-62 3.16 µM | MDA-N 1.17 µM | 786-0 1.93 µM | T47D 7.24 µM | UO-31 3.26 µM | HCT-116 1.65 µM | RXF 393 1.52 µM | DU-145 6.89 µM | MCF7 4.18 µM | HOP-92 3.44 µM | SK-MEL-5 1.99 µM | Malme-3M 8.63 µM | NCI/ADR-RES 7.41 µM | CAKI-1 6.46 µM

C#CC(O)/C=C/C(O)CCCC(O)CC#CC(O)C#CCCCCC(O)/C=C/CCCC(=O)CCCCCCCCCCCCCCCC(O)C(O)C#CC(=O)O (stereo not given)
inactive: SF-268 > 25 µM | KM12 > 25 µM | HT-29 > 25 µM | Hs-578T > 25 µM | M14 > 25 µM | NCI-H226 > 25 µM | UACC-62 > 25 µM | MDA-N > 25 µM | 786-0 > 25 µM | T47D 14.2 µM | UO-31 > 25 µM | HCT-116 > 25 µM | RXF 393 9.64 µM | DU-145 > 25 µM | MCF7 > 25 µM | HOP-92 > 25 µM | SK-MEL-5 > 25 µM | Malme-3M > 25 µM | NCI/ADR-RES > 25 µM | CAKI-1 > 25 µM

CCOC(=O)c1c(C)n(-c2ccc(Cl)cc2)c2c1cc(O)c1[nH]c3c(c12)CCCC3
inactive: SF-268 50.5 µM | KM12 29 µM | HT-29 30.2 µM | Hs-578T 22.5 µM | M14 57.3 µM | NCI-H226 > 100 µM | UACC-62 27.1 µM | MDA-N 35.7 µM | 786-0 > 100 µM | T47D > 100 µM | UO-31 > 100 µM | HCT-116 > 100 µM | RXF 393 19.5 µM | DU-145 > 100 µM | MCF7 34.7 µM | HOP-92 38.5 µM | SK-MEL-5 21.6 µM | Malme-3M 80.2 µM | NCI/ADR-RES > 100 µM | CAKI-1 > 100 µM

CC(C)[C@H](NC(=O)[C@H](N)Cc1ccc(N(CCCl)CCCl)cc1)C(=O)O
inactive: SF-268 > 100 µM | KM12 > 100 µM | HT-29 > 100 µM | Hs-578T > 100 µM | M14 > 100 µM | NCI-H226 > 100 µM | UACC-62 > 100 µM | MDA-N > 100 µM | 786-0 > 100 µM | T47D > 100 µM | UO-31 > 100 µM | HCT-116 > 100 µM | RXF 393 > 100 µM | DU-145 > 100 µM | MCF7 > 100 µM | HOP-92 9.82 µM | SK-MEL-5 > 100 µM | Malme-3M > 100 µM | NCI/ADR-RES > 100 µM | CAKI-1 > 100 µM

O=[N+]([O-])/C=C/c1cc2ccccc2[nH]1
inactive: SF-268 16.9 µM | KM12 12.2 µM | HT-29 15.8 µM | Hs-578T 22.5 µM | M14 12.5 µM | NCI-H226 19.1 µM | UACC-62 18.2 µM | MDA-N 3.24 µM | 786-0 14.6 µM | T47D 16.2 µM | UO-31 14.8 µM | HCT-116 4.31 µM | RXF 393 13.3 µM | DU-145 15.4 µM | MCF7 4.03 µM | HOP-92 19.8 µM | SK-MEL-5 14.7 µM | Malme-3M 27.5 µM | NCI/ADR-RES 32.1 µM | CAKI-1 17.4 µM

Nc1nc2c(c(-c3cccc(Cl)c3)n1)COC/C2=C\c1cccc(Cl)c1
inactive: SF-268 > 100 µM | KM12 85.1 µM | HT-29 > 100 µM | Hs-578T 45.6 µM | M14 > 100 µM | NCI-H226 > 100 µM | UACC-62 > 100 µM | MDA-N > 100 µM | 786-0 15.6 µM | T47D 82.6 µM | UO-31 25 µM | HCT-116 > 100 µM | RXF 393 > 100 µM | DU-145 80.2 µM | MCF7 > 100 µM | HOP-92 > 100 µM | SK-MEL-5 > 100 µM | Malme-3M 37.9 µM | NCI/ADR-RES > 100 µM | CAKI-1 > 100 µM

[O-][s+]1c2c(Cc3ccccc3)c(Cc3ccccc3)c1CCc1cccc(c1)CC2
inactive: SF-268 15.6 µM | KM12 12.2 µM | HT-29 11.9 µM | Hs-578T 18.2 µM | M14 14.7 µM | NCI-H226 19.1 µM | UACC-62 10.9 µM | MDA-N 14.1 µM | 786-0 15.2 µM | T47D 6.68 µM | UO-31 12.9 µM | HCT-116 8.99 µM | RXF 393 3.86 µM | DU-145 15.8 µM | MCF7 11.1 µM | HOP-92 13.4 µM | SK-MEL-5 14.9 µM | Malme-3M 17.1 µM | NCI/ADR-RES 14.4 µM | CAKI-1 11.9 µM

O=[N+]([O-])c1ccc(O)c(/C=N/c2nc(-c3ccccc3)cs2)c1
inactive: SF-268 27.9 µM | KM12 37.5 µM | HT-29 34.2 µM | Hs-578T 25.8 µM | M14 29.4 µM | NCI-H226 24.7 µM | UACC-62 4.67 µM | MDA-N 27.5 µM | 786-0 34.2 µM | T47D 24.3 µM | UO-31 26.4 µM | HCT-116 26.7 µM | RXF 393 20.8 µM | DU-145 30.4 µM | MCF7 26.8 µM | HOP-92 22.9 µM | SK-MEL-5 13.2 µM | Malme-3M 24.8 µM | NCI/ADR-RES 29.7 µM | CAKI-1 77.6 µM

Cc1ccc(S(=O)(=O)Oc2ccc(OS(=O)(=O)c3ccc(C)cc3)c3c2C(=O)c2ccccc2C3=O)cc1
inactive: SF-268 > 100 µM | KM12 > 100 µM | HT-29 > 100 µM | Hs-578T 38.7 µM | M14 > 100 µM | NCI-H226 > 100 µM | UACC-62 > 100 µM | MDA-N > 100 µM | 786-0 50.7 µM | T47D > 100 µM | UO-31 33.8 µM | HCT-116 > 100 µM | RXF 393 23.6 µM | DU-145 > 100 µM | MCF7 > 100 µM | HOP-92 > 100 µM | SK-MEL-5 > 100 µM | Malme-3M > 100 µM | NCI/ADR-RES > 100 µM | CAKI-1 > 100 µM

C=CCOC(=O)/C(=C\c1ccc(OC)c(OC)c1)c1ccc(OC)c(OC)c1
inactive: SF-268 52.7 µM | KM12 42.4 µM | HT-29 28.1 µM | Hs-578T 39.1 µM | M14 > 100 µM | NCI-H226 > 100 µM | UACC-62 38.5 µM | MDA-N 60.7 µM | 786-0 71.3 µM | T47D 29.8 µM | UO-31 20.7 µM | HCT-116 25.2 µM | RXF 393 27.9 µM | DU-145 > 100 µM | MCF7 47.2 µM | HOP-92 21.8 µM | SK-MEL-5 42.3 µM | Malme-3M 91.6 µM | NCI/ADR-RES 40.6 µM | CAKI-1 62.2 µM
